Laboratory results from PubChem BioAssay AID1963867 (Molecular Pharmacology Branch, DTP, NCI, 2024).

Tested on: KRAS-mutant PDC tumor spheroid with HUVEC/MSC, viability
Assay: Anticancer human tumor 327498-153-R-J2-PDC patient-derived uterine carcinosarcoma cell line growth inhibition [KRAS2]
Details: for IC50: curve of first compound; for viability, T/C: stronger effect = lower value; active = viability on the fitted dose curve at most 10% of control; inactive = the rest
How it was run: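 KRAS-mutant tumor cells were grown as spheroids with HUVEC endothelial cells and human MSCs as stroma. Targeted agents were tested alone and with KRAS pathway inhibitors. Doses started at or near clinical Cmax, or 10 microM, descending half-log.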

[1] = second compound 0.1 µM, first compound 0.0316 µM
[2] = second compound 0.1 µM, first compound 0.1 µM
[3] = second compound 0.1 µM, first compound 0.316 µM
[4] = second compound 0.1 µM, first compound 1 µM
[5] = second compound 0.1 µM, first compound 3.16 µM
[6] = second compound 0.1 µM, first compound 10 µM
[7] = second compound 0.316 µM, first compound 0.0316 µM
[8] = second compound 0.316 µM, first compound 0.1 µM
[9] = second compound 0.316 µM, first compound 0.316 µM
[10] = second compound 0.316 µM, first compound 1 µM
[11] = second compound 0.316 µM, first compound 3.16 µM
[12] = second compound 0.316 µM, first compound 10 µM
[13] = second compound 1 µM, first compound 0.0316 µM
[14] = second compound 1 µM, first compound 0.1 µM
[15] = second compound 1 µM, first compound 0.316 µM
[16] = second compound 1 µM, first compound 1 µM
[17] = second compound 1 µM, first compound 3.16 µM
[18] = second compound 1 µM, first compound 10 µM
[19] = second compound 3.16 µM, first compound 0.0316 µM
[20] = second compound 3.16 µM, first compound 0.1 µM
[21] = second compound 3.16 µM, first compound 0.316 µM
[22] = second compound 3.16 µM, first compound 1 µM
[23] = second compound 3.16 µM, first compound 3.16 µM
[24] = second compound 3.16 µM, first compound 10 µM
[25] = second compound 10 µM, first compound 0.0316 µM
[26] = second compound 10 µM, first compound 0.1 µM
[27] = second compound 10 µM, first compound 0.316 µM
[28] = second compound 10 µM, first compound 1 µM
[29] = second compound 10 µM, first compound 3.16 µM
[30] = second compound 10 µM, first compound 10 µM
[31] = second compound 0.1 µM, first compound 0.00316 µM
[32] = second compound 0.1 µM, first compound 0.01 µM
[33] = second compound 0.316 µM, first compound 0.00316 µM
[34] = second compound 0.316 µM, first compound 0.01 µM
[35] = second compound 1 µM, first compound 0.00316 µM
[36] = second compound 1 µM, first compound 0.01 µM
[37] = second compound 3.16 µM, first compound 0.00316 µM
[38] = second compound 3.16 µM, first compound 0.01 µM
[39] = second compound 10 µM, first compound 0.00316 µM
[40] = second compound 10 µM, first compound 0.01 µM
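Also: spheroids exposed to agents for seven days before reading.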
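For viability, T/C in this document: 100% = DMSO vehicle wells so lower means fewer viable cells.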

CC(C)NCC(C(=O)N1CCN(c2ncnc3c2C(C)CC3O)CC1)c1ccc(Cl)cc1 (stereo not given) + COc1cc2nc(C)nc(NC(C)c3cc(N)cc(C(F)(F)F)c3)c2cc1OC1CCOC1
102 nM: IC50 (second compound 0.316 µM)
active: viability, T/C [6] 9.87% | viability, T/C [12] 9.57% | viability, T/C [17] 7.32% | viability, T/C [18] 3.46% | viability, T/C [23] 8.44% | viability, T/C [24] 8.27% | viability, T/C [28] 5.51% | viability, T/C [29] 0.16% | viability, T/C [30] 0.34%
inactive: viability, T/C [1] 70.8% | viability, T/C [2] 57.7% | viability, T/C [3] 44% | viability, T/C [4] 26.3% | viability, T/C [5] 9.54% | viability, T/C [7] 62.5% | viability, T/C [8] 49.5% | viability, T/C [9] 34.4% | viability, T/C [10] 21.7% | viability, T/C [11] 8.09% | viability, T/C [13] 60% | viability, T/C [14] 51% | viability, T/C [15] 28.8% | viability, T/C [16] 17.7% | viability, T/C [19] 54.4% | viability, T/C [20] 42.1% | viability, T/C [21] 43.6% | viability, T/C [22] 14.2% | viability, T/C [25] 37.8% | viability, T/C [26] 27.3% | viability, T/C [27] 16.6%
90.7 nM: IC50 (second compound 1 µM)
< 31.6 nM: IC50 (second compound 3.16 µM) | IC50 (second compound 10 µM)
195 nM: IC50 (second compound 0.1 µM)

CC1(C)CCC(CN2CCN(c3ccc(C(=O)NS(=O)(=O)c4ccc(NCC5CCOCC5)c([N+](=O)[O-])c4)c(Oc4cnc5[nH]ccc5c4)c3)CC2)=C(c2ccc(Cl)cc2)C1 + COc1cc2nc(C)nc(NC(C)c3cc(N)cc(C(F)(F)F)c3)c2cc1OC1CCOC1
1490 nM: IC50 (second compound 3.16 µM)
2270 nM: IC50 (second compound 0.316 µM)
178 nM: IC50 (second compound 10 µM)
inactive: viability, T/C [1] 78.8% | viability, T/C [2] 80.5% | viability, T/C [3] 76.9% | viability, T/C [4] 77.3% | viability, T/C [5] 50.5% | viability, T/C [7] 74.3% | viability, T/C [8] 64.3% | viability, T/C [9] 75.4% | viability, T/C [10] 71.1% | viability, T/C [11] 41.5% | viability, T/C [13] 74.1% | viability, T/C [14] 72% | viability, T/C [15] 65.9% | viability, T/C [16] 67.8% | viability, T/C [17] 38.8% | viability, T/C [19] 65.2% | viability, T/C [20] 65.3% | viability, T/C [21] 66.7% | viability, T/C [22] 61.5% | viability, T/C [23] 28.4% | viability, T/C [25] 53% | viability, T/C [26] 54.6% | viability, T/C [27] 42.1% | viability, T/C [28] 39.9% | viability, T/C [29] 11.5%
active: viability, T/C [6] 4.9% | viability, T/C [12] 1.82% | viability, T/C [18] 0.73% | viability, T/C [24] 3.34% | viability, T/C [30] 0.44%
2010 nM: IC50 (second compound 1 µM)
3200 nM: IC50 (second compound 0.1 µM)

CCN1CCN(Cc2ccc(Nc3ncc(F)c(-c4cc(F)c5nc(C)n(C(C)C)c5c4)n3)nc2)CC1 + COc1cc2nc(C)nc(NC(C)c3cc(N)cc(C(F)(F)F)c3)c2cc1OC1CCOC1
< 3.16 nM: IC50 (second compound 1 µM) | IC50 (second compound 10 µM)
6.84 nM: IC50 (second compound 0.316 µM)
10.6 nM: IC50 (second compound 0.1 µM)
inactive: viability, T/C [31] 65.4% | viability, T/C [32] 52.8% | viability, T/C [1] 42.6% | viability, T/C [2] 40% | viability, T/C [3] 40% | viability, T/C [4] 49.2% | viability, T/C [33] 61% | viability, T/C [34] 48% | viability, T/C [7] 33.2% | viability, T/C [8] 35.9% | viability, T/C [9] 36.6% | viability, T/C [10] 41.2% | viability, T/C [35] 51.8% | viability, T/C [36] 37.8% | viability, T/C [13] 33% | viability, T/C [14] 30% | viability, T/C [15] 39.5% | viability, T/C [16] 42.8% | viability, T/C [37] 56.4% | viability, T/C [38] 34.5% | viability, T/C [19] 31% | viability, T/C [20] 29.9% | viability, T/C [21] 34.6% | viability, T/C [22] 31.3% | viability, T/C [39] 45.4% | viability, T/C [40] 28.9% | viability, T/C [25] 29.2% | viability, T/C [26] 26.9% | viability, T/C [27] 20.3%
active: viability, T/C [28] 0.34%
4.42 nM: IC50 (second compound 3.16 µM)

Cn1ncnc1[C@H]1c2n[nH]c(=O)c3cc(F)cc(c23)N[C@@H]1c1ccc(F)cc1 + COc1cc2nc(C)nc(NC(C)c3cc(N)cc(C(F)(F)F)c3)c2cc1OC1CCOC1
9.03 nM: IC50 (second compound 0.316 µM)
4.31 nM: IC50 (second compound 1 µM)
1.4 nM: IC50 (second compound 10 µM)
7.37 nM: IC50 (second compound 3.16 µM)
12.5 nM: IC50 (second compound 0.1 µM)
inactive: viability, T/C (second compound 0.1 µM, first compound 0.000316 µM) 79.3% | viability, T/C (second compound 0.1 µM, first compound 0.001 µM) 82.3% | viability, T/C [31] 68.9% | viability, T/C [32] 54.5% | viability, T/C [1] 33.3% | viability, T/C [2] 20.1% | viability, T/C (second compound 0.316 µM, first compound 0.000316 µM) 82.1% | viability, T/C (second compound 0.316 µM, first compound 0.001 µM) 63.5% | viability, T/C [33] 68.6% | viability, T/C [34] 48.1% | viability, T/C [7] 32.2% | viability, T/C [8] 20.5% | viability, T/C (second compound 1 µM, first compound 0.000316 µM) 76.6% | viability, T/C (second compound 1 µM, first compound 0.001 µM) 69.7% | viability, T/C [35] 50% | viability, T/C [36] 42.1% | viability, T/C [13] 28.7% | viability, T/C [14] 20.1% | viability, T/C (second compound 3.16 µM, first compound 0.000316 µM) 62.9% | viability, T/C (second compound 3.16 µM, first compound 0.001 µM) 68.8% | viability, T/C [37] 58.1% | viability, T/C [38] 47.3% | viability, T/C [19] 26.5% | viability, T/C [20] 20.4% | viability, T/C (second compound 10 µM, first compound 0.000316 µM) 50% | viability, T/C (second compound 10 µM, first compound 0.001 µM) 51.6% | viability, T/C [39] 48.5% | viability, T/C [40] 42% | viability, T/C [25] 27.8% | viability, T/C [26] 18.5%
